Test results taken from paper PMC7269057, “Synthesis of calix[4]azacrown substituted sulphonamides with antioxidant, acetylcholinesterase, butyrylcholinesterase, tyrosinase and carbonic anhydrase inhibitory action” (Journal of Enzyme Inhibition and Medicinal Chemistry, 2020).
Like-named read-outs stand apart in the source and are kept apart here.

Assays:
BChE = BChE (Homo sapiens, UniProt P06276); experiment: Anticholinesterase assay (Ellman), BChE; format: biochemical; conditions: read-out: BChE assay % inhibition
Procedure: The inhibitory effect of novel calix[4]azacrown substituted sulphonamide Schiff bases CX(1–6) on AChE and BChE activities was determined according to the slightly modified spectrophotometric method of Ellman et al.[38]. All compounds were dissolved in DMSO to prepare stock solutions at 4 mM concentration. Aliquots of 150 µL of 100 mM sodium phosphate buffer (pH 8.0), 10 µL of sample solution and 20 µL AChE (or BChE) solution were mixed and incubated for 15 min at 25 °C, and DTNB [5,5′-Dithio-bis(2-nitro-benzoic)acid] (10 µL) is added. The reaction was then initiated by the addition of acetylthiocholine iodide (or butyrylthiocholine iodide) (10 µL). […]. Tests were carried out in triplicate. Galantamine was used as positive control.

[1] = ABTS cation radical decolorisation assay; conditions: 6 min at room temperature, 734 nm; mean ± SD of three measurements
Procedure: The percent inhibition of decolorisation of ABTS [2,2′-azino-bis(3-ethylbenzothiazoline-6-sulfonic acid)] cation radical is obtained as a function of time and concentration and evaluated by comparison with the BHT and BHA compounds used as standard[35]^,[36]. The tested compounds at different concentrations are added to each well and 160 µL of 7 mM ABTS solution is added. After 6 min at room temperature, the absorbances were measured at 734 nm. ABTS cation radical decolorisation activities were determined by using the equation below: %Inhibition = (Acontrol−Asample)/Acontrol × 100 where A is the absorbance. Tests were carried out in triplicate. BHA and BHT were used as positive control.

hCA IV = target: T1, hCA IV (Homo sapiens, UniProt P22748); experiment: biochemical; conditions: stopped flow CO2 hydrase assay; mean from 3 assays, errors ± 5–10%
T1 construct: made in house
Source text: (§2) An SX.18 MV-R Applied Photophysics (Oxford, UK) stopped-flow instrument has been used to assay the inhibition of various CA isozymes[26]. […] The inhibition constants were obtained by nonlinear least-squares methods using the Cheng-Prusoff equation, as reported earlier, and represent the mean from at least three different determinations1[27–32].

hCA I = target: T2, hCA I (Homo sapiens, UniProt P00915); experiment: biochemical; conditions: stopped flow CO2 hydrase assay; mean from 3 assays, errors ± 5–10%
T2 construct: made in house
Source text: as §2

hCA XII = target: T3, hCA XII (Homo sapiens, UniProt O43570); experiment: CA inhibition, stopped flow CO2 hydrase assay; format: biochemical; conditions: mean from 3 assays, errors ± 5–10%
T3 construct: made in house
Procedure: (§1) An SX.18 MV-R Applied Photophysics (Oxford, UK) stopped-flow instrument has been used to assay the inhibition of various CA isozymes. Phenol Red (at a concentration of 0.2 mM) has been used as an indicator, working at the absorbance maximum of 557 nm, with 10 mM Hepes (pH 7.4) as a buffer, 0.1 M Na2SO4 or NaClO4 (for maintaining constant the ionic strength; […]. Stock solutions of inhibitors were prepared at a concentration of 10 mM (in DMSO-water 1:1, v/v) and dilutions up to 0.01 nM done with the assay buffer mentioned above. At least 7 different inhibitor concentrations have been used for measuring the inhibition constant. Inhibitor and enzyme solutions were pre-incubated together for 10 min at room temperature before assay, to allow for the formation of the E-I complex. Triplicate experiments were done for each inhibitor concentration, and the value reported throughout the paper is the mean of such results. The inhibition constants were obtained by nonlinear least-squares methods using the Cheng-Prusoff equation, as reported earlier, and represent the mean from at least three different determinations1[27–32]. All CA isozymes used here were recombinant proteins obtained as reported earlier by our group.

hCA II = target: T4, hCA II (Homo sapiens, UniProt P00918); experiment: CA inhibition, stopped flow CO2 hydrase assay; format: biochemical; conditions: mean from 3 assays, errors ± 5–10%
T4 construct: made in house
Procedure: as §1

Metal chelating activity = conditions: ferrous chloride/ferrozine, 562 nm; mean ± SD of three measurements; read-out: IC50 Metal Chelate
Procedure: The chelating ability of synthesised compounds was examined according to the method of Dinis et al.[37]. The tested compounds at different concentrations were added to each well and 4 µL of 2 mM ferrous (II) chloride was added. Then 8 µL of 5 mM ferrozine was added and the reaction was started. After 10 min at room temperature, the absorbance was measured at 562 nm against a blank. The results were expressed as a percentage of inhibition of the ferrozine-Fe^2+ complex formation. The percentage inhibition of the ferrozine -Fe^2+ complex formation was calculated using the formula given below: Chelating ability (%)=(Acontrol−Asample)/Acontrol×100 where A is the absorbance. Tests were carried out in triplicate. EDTA was used as a positive control.

[2] = DPPH radical scavenging assay; conditions: 30 min in the dark, 517 nm; mean ± SD of three measurements; read-out: IC50 DPPH Free Radical
Procedure: The DPPH (2,2-diphenyl-1-picrylhydrazyl) radical scavenging activity of the synthesised compounds was determined by a spectrophotometric method based on the reduction of an ethanol solution of DPPH[33]^,[34]. 2, 5, 10, 20 µL of 1 mM stock solution of each compound was completed to 40 µL with the DMSO and mixed with 160 µL of 0.1 mM of DPPH free radical solution. The mixture was led to stand for 30 min in the dark and the absorbance was then measured at 517 nm against a blank. Inhibition of free radical, DPPH, in percent (I %), was calculated according to the formula: I %=(Acontrol−Asample)/Acontrol×100 where Acontrol is the absorbance of the control reaction (containing all reagents except for the tested compounds), and Asample is the absorbance of the test compounds. Tests were carried out in triplicate. BHA and BHT were used as positive control.

Tyrosinase from mushroom = experiment: Anti-tyrosinase activity (diphenolase, L-DOPA substrate); format: biochemical; conditions: at 200 µM
Procedure: Anti-tyrosinase activity of the compounds was performed according to the method designed by Hearing and Jimenez[39]. Firstly, the inhibition of diphenolase function of the compounds was evaluated and L-DOPA was used as substrate. Tyrosinase from mushroom (E.C. 1.14.18.1) (30 U, 28 nM) was dissolved in Na-phosphate buffer (pH = 6.8, […]) and the compounds were added to the solution for pre-incubation at room temperature for ten minutes. After incubation, 0.5 mM L-DOPA was added to the mixture and the change in absorbance was measured at 475 nm at 37 °C. For positive control, kojic acid was used. The following formula was used to calculate the percentage of all enzyme inhibitions: Inhibition (%) = (Acontrol–Asample)/Acontrol × 100

hCA VII = target: T5, hCA VII (Homo sapiens, UniProt P43166); experiment: biochemical; conditions: stopped flow CO2 hydrase assay; mean from 3 assays, errors ± 5–10%
T5 construct: made in house
Source text: as §2

hCA IX = target: T6, hCA IX (Homo sapiens, UniProt Q16790); experiment: biochemical; conditions: stopped flow CO2 hydrase assay; mean from 3 assays, errors ± 5–10%
T6 construct: made in house
Source text: as §2

T3 sequence (O43570 25-354): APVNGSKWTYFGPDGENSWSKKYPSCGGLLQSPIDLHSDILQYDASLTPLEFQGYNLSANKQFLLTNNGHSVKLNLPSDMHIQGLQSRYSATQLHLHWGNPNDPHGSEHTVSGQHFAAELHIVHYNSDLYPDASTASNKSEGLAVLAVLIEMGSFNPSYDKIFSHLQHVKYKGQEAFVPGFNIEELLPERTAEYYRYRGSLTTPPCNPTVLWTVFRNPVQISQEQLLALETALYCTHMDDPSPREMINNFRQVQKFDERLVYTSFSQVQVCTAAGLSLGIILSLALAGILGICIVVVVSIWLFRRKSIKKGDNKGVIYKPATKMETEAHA
T2 sequence (P00915 whole entry): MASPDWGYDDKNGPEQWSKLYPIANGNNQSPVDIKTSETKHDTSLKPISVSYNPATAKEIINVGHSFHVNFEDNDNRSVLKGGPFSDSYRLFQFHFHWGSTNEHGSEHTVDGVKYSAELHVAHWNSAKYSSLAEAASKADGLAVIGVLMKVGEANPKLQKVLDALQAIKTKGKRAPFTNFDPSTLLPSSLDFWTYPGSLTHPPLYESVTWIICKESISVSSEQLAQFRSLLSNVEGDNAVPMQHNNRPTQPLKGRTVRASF
T5 sequence (P43166 whole entry): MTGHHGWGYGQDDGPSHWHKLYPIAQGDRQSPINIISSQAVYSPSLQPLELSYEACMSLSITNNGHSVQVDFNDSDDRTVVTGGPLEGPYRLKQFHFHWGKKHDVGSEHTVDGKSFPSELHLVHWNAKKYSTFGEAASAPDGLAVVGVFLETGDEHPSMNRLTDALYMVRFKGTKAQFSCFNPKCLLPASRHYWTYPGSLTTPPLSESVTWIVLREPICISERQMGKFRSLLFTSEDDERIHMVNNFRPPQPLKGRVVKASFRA
T1 sequence (P22748 19-312): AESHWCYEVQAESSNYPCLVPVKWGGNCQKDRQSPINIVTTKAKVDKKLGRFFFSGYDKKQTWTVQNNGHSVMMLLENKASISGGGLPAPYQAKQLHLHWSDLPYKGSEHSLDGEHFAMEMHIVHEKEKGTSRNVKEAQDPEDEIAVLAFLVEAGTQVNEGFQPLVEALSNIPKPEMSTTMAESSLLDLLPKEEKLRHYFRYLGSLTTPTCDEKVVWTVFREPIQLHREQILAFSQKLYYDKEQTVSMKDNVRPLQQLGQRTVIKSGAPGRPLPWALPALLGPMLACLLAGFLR
Chain of BChE (P06276 29-602): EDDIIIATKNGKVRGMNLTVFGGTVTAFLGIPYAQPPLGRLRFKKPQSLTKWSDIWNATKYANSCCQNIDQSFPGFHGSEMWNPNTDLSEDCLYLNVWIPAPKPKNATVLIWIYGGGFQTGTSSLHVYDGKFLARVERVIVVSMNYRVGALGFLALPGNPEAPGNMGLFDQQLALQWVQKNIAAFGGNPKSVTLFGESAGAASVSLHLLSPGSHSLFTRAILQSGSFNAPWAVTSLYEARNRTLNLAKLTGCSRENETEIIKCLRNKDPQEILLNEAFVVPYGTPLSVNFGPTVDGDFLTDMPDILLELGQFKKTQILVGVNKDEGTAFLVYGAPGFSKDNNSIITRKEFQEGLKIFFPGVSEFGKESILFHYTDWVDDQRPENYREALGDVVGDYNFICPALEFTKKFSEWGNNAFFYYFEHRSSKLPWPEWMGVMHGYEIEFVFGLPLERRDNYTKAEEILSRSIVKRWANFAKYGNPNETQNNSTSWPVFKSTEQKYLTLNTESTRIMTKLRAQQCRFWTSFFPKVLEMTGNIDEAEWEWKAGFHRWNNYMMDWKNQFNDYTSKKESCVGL

## COc1ccc2c3c1O[C@H]1C[C@@H](O)C=C[C@@]31CCN(C)C2 [Galantamine, reference compound]
BChE
  inhibition at 200 µM: 76.5 ± 1.28%

## Cc1cc(NS(=O)(=O)c2ccc(/N=C/c3cc4c(O)c(c3)Cc3cc(C(C)(C)C)cc5c3OCC(=O)NCCNC(=O)COc3c(cc(C(C)(C)C)cc3Cc3cc(/C=N/c6ccc(S(=O)(=O)Nc7cc(C)on7)cc6)cc(c3O)C5)C4)cc2)no1 [CX-2]
[1]
  IC50: > 1000 µM
hCA IV
  Ki: > 100 µM
hCA I
  Ki: > 100 µM
hCA XII
  Ki: > 100 µM
hCA II
  Ki: > 100 µM
Metal chelating activity
  IC50: > 1000 µM
[2]
  IC50: > 1000 µM
Tyrosinase from mushroom
  Tyrosinase activity % inhibition: 19.55 ± 0.43%
hCA VII
  Ki: > 100 µM
hCA IX
  Ki: 67.6 µM

## Cc1ccc(S(=O)(=O)NN=Cc2cc3c(O)c(c2)Cc2cc(C(C)(C)C)cc4c2OCC(=O)NCCNC(=O)COc2c(cc(C(C)(C)C)cc2Cc2cc(C=NNS(=O)(=O)c5ccc(C)cc5)cc(c2O)C4)C3)cc1 [CX-5]
[1]
  IC50: 9.79 ± 0.09 µM
hCA IV
  Ki: > 100 µM
hCA I
  Ki: > 100 µM
hCA XII
  Ki: > 100 µM
hCA II
  Ki: > 100 µM
Metal chelating activity
  IC50: > 1000 µM
[2]
  IC50: 16.8 ± 0.85 µM
Tyrosinase from mushroom
  Tyrosinase activity % inhibition: no activity
hCA VII
  Ki: > 100 µM
hCA IX
  Ki: > 100 µM

## COc1ccc(O)c(C(C)(C)C)c1 [BHA, reference compound]
[1]
  IC50: 17.59 ± 0.1 µM
[2]
  IC50: 7.88 ± 0.2 µM

## O=C(O)CN(CCN(CC(=O)O)CC(=O)O)CC(=O)O [EDTA, reference compound]
Metal chelating activity
  IC50: 26.82 ± 0.1 µM

## CC(C)(C)c1cc2c3c(c1)Cc1cc(C=Nc4ccc(S(=O)(=O)Nc5nc6ccccc6s5)cc4)cc(c1O)Cc1cc(C(C)(C)C)cc(c1OCC(=O)NCCNC(=O)CO3)Cc1cc(C=Nc3ccc(S(=O)(=O)Nc4nc5ccccc5s4)cc3)cc(c1O)C2 [CX-4]
[1]
  IC50: > 1000 µM
hCA IV
  Ki: > 100 µM
hCA I
  Ki: > 100 µM
hCA XII
  Ki: > 100 µM
hCA II
  Ki: > 100 µM
Metal chelating activity
  IC50: > 1000 µM
[2]
  IC50: 520.3 ± 0.89 µM
Tyrosinase from mushroom
  Tyrosinase activity % inhibition: 16.48 ± 0.21%
hCA VII
  Ki: > 100 µM
hCA IX
  Ki: > 100 µM

## CC(=O)Nc1ccc(S(=O)(=O)NN=Cc2cc3c(O)c(c2)Cc2cc(C(C)(C)C)cc4c2OCC(=O)NCCNC(=O)COc2c(cc(C(C)(C)C)cc2Cc2cc(C=NNS(=O)(=O)c5ccc(NC(C)=O)cc5)cc(c2O)C4)C3)cc1 [CX-6]
[1]
  IC50: 7.74 ± 0.04 µM
hCA IV
  Ki: > 100 µM
BChE; at 200 µM
  inhibition at 200 µM: 35.4 ± 0.9%
hCA I
  Ki: > 100 µM
hCA XII
  Ki: > 100 µM
hCA II
  Ki: > 100 µM
Metal chelating activity
  IC50: > 1000 µM
[2]
  IC50: 9.02 ± 0.05 µM
Tyrosinase from mushroom
  Tyrosinase activity % inhibition: 28.15 ± 0.74%
hCA VII
  Ki: > 100 µM
hCA IX
  Ki: 64.6 µM

## Cc1cc(C(C)(C)C)c(O)c(C(C)(C)C)c1 [BHT, reference compound]
[1]
  IC50: 13.2 ± 0.27 µM
[2]
  IC50: 58.86 ± 0.5 µM

## CC(C)(C)c1cc2c3c(c1)Cc1cc(C=Nc4ccc(S(=O)(=O)Nc5ncccn5)cc4)cc(c1O)Cc1cc(C(C)(C)C)cc(c1OCC(=O)NCCNC(=O)CO3)Cc1cc(C=Nc3ccc(S(=O)(=O)Nc4ncccn4)cc3)cc(c1O)C2 [CX-3]
[1]
  IC50: 121 ± 0.95 µM
hCA IV
  Ki: > 100 µM
hCA I
  Ki: > 100 µM
hCA XII
  Ki: 10.2 µM
hCA II
  Ki: > 100 µM
Metal chelating activity
  IC50: > 1000 µM
[2]
  IC50: > 1000 µM
Tyrosinase from mushroom
  Tyrosinase activity % inhibition: 35.52 ± 0.82%
hCA VII
  Ki: > 100 µM
hCA IX
  Ki: 46 µM

## CC(C)(C)c1cc2c3c(c1)Cc1cc(C=Nc4ccc(S(N)(=O)=O)cc4)cc(c1O)Cc1cc(C(C)(C)C)cc(c1OCC(=O)NCCNC(=O)CO3)Cc1cc(C=Nc3ccc(S(N)(=O)=O)cc3)cc(c1O)C2 [CX-1]
[1]
  IC50: 769.97 ± 0.22 µM
hCA IV
  Ki: 4.36 µM
hCA I
  Ki: 5.55 µM
hCA XII
  Ki: 0.27 µM
hCA II
  Ki: 0.82 µM
Metal chelating activity
  IC50: > 1000 µM
[2]
  IC50: > 1000 µM
Tyrosinase from mushroom
  Tyrosinase activity % inhibition: 24.46 ± 0.53%
hCA VII
  Ki: 1.21 µM
hCA IX
  Ki: 0.15 µM

## O=c1cc(CO)occ1O [Kojik acid, kojic acid, reference compound]
Tyrosinase from mushroom
  Tyrosinase activity % inhibition: 95.26 ± 0.23%
